Structures are written as SMILES.

This note sets out measurements from US7041275B2, “Irrigating fluid” (priority 2001, dated 2006).

Data set [1] is described as follows: Nitrous oxide concentration in exhaled air of pigs after injection of irrigating fluid containing nitrous oxide. In kind it is in vivo, pig. The text has this:
A Telair N2O monitor type 2001 L was used to measure the nitrous oxide concentration. The measuring range of the instrument was 0–1000 ppm.
As the analyser was sensitive also to carbon dioxide an absorber containing soda lime to remove the carbon dioxide was arranged before the analyser. During the absorption process water is formed which together with the moisture in the exhaled air can disturb the measurements. A layer of silica gel after the soda lime absorber was used to eliminate this problem.
The sample gas pump gave a sample flow of 300 mL/min.
The pump was continuously pumping gas. The measured concentration was a time weighted average for the exhaled and inhaled gas.
The weight of the pig was 19 kg.
The weight of the pig was 21 kg. Ventilation as for pig. 1. First 300 mL of irrigating fluid were injected intraperitonally during 20 minutes. The initial decrease in nitrous oxide concentration was caused by placing the needle in the wrong place. Some mL were injected before the injection was stopped and the test restarted. The decrease is the decay phase from the first injection.
In test two 600 mL were administered intravenously during 20 minutes.
Weight 23 kg. Ventilation […], the rest as for pig 1. First a number of tests with intravenous injection of pulses of fluid were performed. The volumes added were 2, 10 and 20 mL. Approximately 1 mL/s was added.
Then 150 mL of fluid were administered intravenously during 20 minutes. The discontinuity in the diagram was caused by testing another ventilator setting which affected the reading so much that the data point was not used. After 40 minutes 600 mL of irrigating fluid were added intravenously during 20 minutes.
The nitrous oxde concentration values are measured concentrations minus the starting point value. In some cases a test was started while the nitrous oxide concentration from the previous test was still decreasing. As the base line was not stable, the values at the end of the decay phase are uncertain. This can be seen in FIG. 4, where it looks like the 150 mL concentration values are stabilizing at a higher level than the 600 mL values.

The conditions of data set [2]: pig, in vivo.
Experimental: To a bag with 3 L fluid 300 mL of nitrous oxide (=0,18 mg nitrous oxide/mL irrigagting fluid) were added. The nitrous oxide was measured with a 300 mL glass syringe and injected into the bag using the syringe connection. The temperature was abut 22° C. and the air pressure about 1015 mbar (not measured but estimated via meteorological service). Before the addition of nitrous oxide the gas in the bag was removed, about 1 mL remained. After the addition of nitrous oxide the bag was shaken until the nitrous oxide was dissolved. A gas bubble with a volume of abut 15 mL remained.
The weight of the pig was 19 kg. Ventilation 3L/min with 20 breaths per minute, 25% inhalation followed by 10% pause. At the first test 300 mL of irrigating fluid were injected intravenously during 20 min using a dosing pump.
The mark [3] stands for this setting: intraperitoneal injection of irrigating fluid, exhaled air.
[4] abbreviates: intravenous injection of irrigating fluid, exhaled air.

Take `[N-]=[N+]=O` [nitrous oxide]: the “decrease of concentration in exhaled air compared with ethanol” value in data set [1] (data normalised to similar peak heights, pig 1, intravenous) was “decreased much faster than the ethanol”. In addition, in data set [1] (setting [3]), the “time before the nitrous oxide concentration started to increase” value turned out to be 2.5 min and the “time to 50% of the final concentration after the start of the increase” value is “about 5 minutes”. In data set [1] (setting [4]), the “time after start of injection until nitrous oxide concentration started to increase” value is “about 15 seconds” and the “time to 50% of the final concentration after the concentration started to increase” value is on record as “about one”. Besides, in data set [1] (pig 3, 30 mL/min irrigating fluid intravenously, time weighted average of exhaled and inhaled gas), the “measured nitrous oxide concentration used in mass balance” value amounted to 520 ppm. Also, in data set [1] (pig 3, added amount of nitrous oxide 3,0 mL/min), the “exhaled nitrous oxide (mass balance)” value was 3,0 mL/min. In addition, the “increase of nitrous oxide concentration per mL of irrigating fluid” value in data set [1] (pulses of fluid added intravenously (2, 10, 20 mL), exhaled air, pig 3) is 10–15 ppm per mL. Also, the “time of peak reading after start of injection” value in data set [1] (pulses of fluid added intravenously, exhaled air) is reported as “about 30 seconds”.

As for `CCO` [ethanol], the “highest measured ethanol concentration” value in data set [2] is 0.20%.
